Key:
Type in all cases: cell-based
Conditions in all cases: compounds at 50 nM and 500 nM
[1] = biological target: T1, IKZF2 (Homo sapiens, UniProt Q96SW2+Q9UKS7); experiment: Western blot degradation of IKZF2 in hPBMCs (24 h)
T1 construct: The supernatant was aspirated as the extracted total cell protein; endogenous in cells; host or cells: human peripheral blood mononuclear cells (hPBMCs)
Procedure, shortened: (§1)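 Immunoblot densitometry quantifies target loss in hPBMCs after a 24 h compound exposure (50 nM, 500 nM). Percent remaining is normalised band intensity; DC50 is the concentration giving half the DMSO-control band grayscale.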

[2] = biological target: T2, CK1α (Homo sapiens, UniProt P48729+Q96SW2); experiment: Western blot degradation of CK1α in hPBMCs (24 h)
T2 construct: The supernatant was aspirated as the extracted total cell protein; endogenous in cells; host or cells: human peripheral blood mononuclear cells (hPBMCs)
Procedure, shortened: as §1

[3] = biological target: T3, IKZF1 (Homo sapiens, UniProt Q13422+Q96SW2); experiment: Western blot degradation of IKZF1 in hPBMCs (24 h)
T3 construct: The supernatant was aspirated as the extracted total cell protein; endogenous in cells; host or cells: human peripheral blood mononuclear cells (hPBMCs)
Procedure, shortened: as §1

[4] = biological target: T4, GSPT1 (Homo sapiens, UniProt P15170+Q96SW2); experiment: Western blot degradation of GSPT1 in hPBMCs (24 h)
T4 construct: The supernatant was aspirated as the extracted total cell protein; endogenous in cells; host or cells: human peripheral blood mononuclear cells (hPBMCs)
Procedure, shortened: as §1

[5] = biological target: T5, IKZF3 (Homo sapiens, UniProt Q96SW2+Q9UKT9); experiment: Western blot degradation of IKZF3 in hPBMCs (24 h)
T5 construct: The supernatant was aspirated as the extracted total cell protein; endogenous in cells; host or cells: human peripheral blood mononuclear cells (hPBMCs)
Procedure, shortened: as §1

[6] = biological target: T6, WEE1 (Homo sapiens, UniProt P30291+Q96SW2); experiment: Western blot degradation of WEE1 in hPBMCs (24 h)
T6 construct: The supernatant was aspirated as the extracted total cell protein; endogenous in cells; host or cells: human peripheral blood mononuclear cells (hPBMCs)
Procedure, shortened: as §1

T6 sequence (P30291 whole entry): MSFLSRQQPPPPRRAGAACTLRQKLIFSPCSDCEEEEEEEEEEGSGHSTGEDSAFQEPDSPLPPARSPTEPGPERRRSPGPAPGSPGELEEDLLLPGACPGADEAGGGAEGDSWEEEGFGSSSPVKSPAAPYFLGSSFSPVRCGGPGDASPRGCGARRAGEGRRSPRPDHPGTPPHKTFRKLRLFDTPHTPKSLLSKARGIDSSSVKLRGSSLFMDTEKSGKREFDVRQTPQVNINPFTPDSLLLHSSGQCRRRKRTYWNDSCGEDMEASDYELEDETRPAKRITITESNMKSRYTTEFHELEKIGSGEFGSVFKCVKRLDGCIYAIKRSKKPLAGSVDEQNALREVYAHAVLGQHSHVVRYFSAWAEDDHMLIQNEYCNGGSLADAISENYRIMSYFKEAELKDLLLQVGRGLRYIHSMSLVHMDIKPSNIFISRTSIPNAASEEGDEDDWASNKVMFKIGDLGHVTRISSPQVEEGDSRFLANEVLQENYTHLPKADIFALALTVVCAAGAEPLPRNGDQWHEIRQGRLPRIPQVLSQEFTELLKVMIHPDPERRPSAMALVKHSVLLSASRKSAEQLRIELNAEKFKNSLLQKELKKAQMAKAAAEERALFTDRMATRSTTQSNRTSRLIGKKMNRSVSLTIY
T6 sequence (Q96SW2 whole entry): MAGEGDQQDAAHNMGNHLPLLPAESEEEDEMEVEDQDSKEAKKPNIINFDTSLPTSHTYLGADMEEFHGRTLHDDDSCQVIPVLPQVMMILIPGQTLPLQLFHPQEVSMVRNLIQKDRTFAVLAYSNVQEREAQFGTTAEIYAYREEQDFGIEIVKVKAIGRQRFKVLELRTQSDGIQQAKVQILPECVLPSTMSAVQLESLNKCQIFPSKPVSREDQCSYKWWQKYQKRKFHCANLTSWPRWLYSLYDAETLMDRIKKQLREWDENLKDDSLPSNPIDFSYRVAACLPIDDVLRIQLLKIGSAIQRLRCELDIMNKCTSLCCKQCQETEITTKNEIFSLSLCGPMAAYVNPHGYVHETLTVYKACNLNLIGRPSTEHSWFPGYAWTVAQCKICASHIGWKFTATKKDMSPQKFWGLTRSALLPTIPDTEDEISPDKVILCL
T6 sequence (Q16531 whole entry partner): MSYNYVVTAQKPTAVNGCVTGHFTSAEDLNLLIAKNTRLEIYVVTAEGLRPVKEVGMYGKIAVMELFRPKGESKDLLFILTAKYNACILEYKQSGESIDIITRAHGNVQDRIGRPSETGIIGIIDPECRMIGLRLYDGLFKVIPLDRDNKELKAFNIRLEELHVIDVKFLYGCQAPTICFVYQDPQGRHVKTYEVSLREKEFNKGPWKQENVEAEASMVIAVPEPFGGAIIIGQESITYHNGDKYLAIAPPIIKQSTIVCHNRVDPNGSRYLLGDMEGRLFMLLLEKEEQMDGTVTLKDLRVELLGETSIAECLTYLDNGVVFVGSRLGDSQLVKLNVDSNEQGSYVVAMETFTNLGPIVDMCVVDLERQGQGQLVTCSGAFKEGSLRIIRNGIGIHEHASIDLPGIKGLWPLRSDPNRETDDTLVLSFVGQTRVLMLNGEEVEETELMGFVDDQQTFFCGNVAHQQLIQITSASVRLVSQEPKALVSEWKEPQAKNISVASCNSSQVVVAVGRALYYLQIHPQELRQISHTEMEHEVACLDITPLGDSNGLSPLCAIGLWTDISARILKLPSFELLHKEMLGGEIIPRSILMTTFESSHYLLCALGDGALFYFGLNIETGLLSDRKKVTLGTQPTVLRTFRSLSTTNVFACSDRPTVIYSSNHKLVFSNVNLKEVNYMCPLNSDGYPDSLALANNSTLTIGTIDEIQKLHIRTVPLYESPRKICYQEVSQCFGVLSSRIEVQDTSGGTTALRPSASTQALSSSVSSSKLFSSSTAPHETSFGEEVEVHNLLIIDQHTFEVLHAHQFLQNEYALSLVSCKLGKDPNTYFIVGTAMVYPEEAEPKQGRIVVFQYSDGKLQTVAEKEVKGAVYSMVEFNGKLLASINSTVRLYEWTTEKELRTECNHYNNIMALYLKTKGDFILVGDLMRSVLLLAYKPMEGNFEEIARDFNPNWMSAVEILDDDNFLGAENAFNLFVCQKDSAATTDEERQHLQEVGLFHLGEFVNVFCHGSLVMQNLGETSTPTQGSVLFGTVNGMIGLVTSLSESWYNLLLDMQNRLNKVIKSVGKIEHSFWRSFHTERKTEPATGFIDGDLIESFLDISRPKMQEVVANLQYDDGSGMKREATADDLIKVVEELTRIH
T3 sequence (Q13422 whole entry): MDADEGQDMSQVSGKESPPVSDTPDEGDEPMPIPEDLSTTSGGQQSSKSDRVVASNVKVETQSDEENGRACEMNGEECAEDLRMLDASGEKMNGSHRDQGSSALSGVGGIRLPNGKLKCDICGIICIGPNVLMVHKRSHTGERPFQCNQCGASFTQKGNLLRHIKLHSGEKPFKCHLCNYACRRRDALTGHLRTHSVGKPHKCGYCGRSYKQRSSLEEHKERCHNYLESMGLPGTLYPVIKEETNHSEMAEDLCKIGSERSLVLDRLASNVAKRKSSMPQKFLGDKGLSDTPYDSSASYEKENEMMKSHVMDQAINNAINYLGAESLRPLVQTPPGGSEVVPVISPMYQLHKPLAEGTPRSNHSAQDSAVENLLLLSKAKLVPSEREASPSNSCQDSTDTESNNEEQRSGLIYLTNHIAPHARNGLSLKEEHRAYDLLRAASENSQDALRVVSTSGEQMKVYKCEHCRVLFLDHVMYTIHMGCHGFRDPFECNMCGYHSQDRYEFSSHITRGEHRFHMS
T3 sequence (Q96SW2 whole entry): as the sequence (Q96SW2 whole entry) above
T3 sequence (Q16531 whole entry partner): as the sequence (Q16531 whole entry partner) above
T4 sequence (P15170 whole entry): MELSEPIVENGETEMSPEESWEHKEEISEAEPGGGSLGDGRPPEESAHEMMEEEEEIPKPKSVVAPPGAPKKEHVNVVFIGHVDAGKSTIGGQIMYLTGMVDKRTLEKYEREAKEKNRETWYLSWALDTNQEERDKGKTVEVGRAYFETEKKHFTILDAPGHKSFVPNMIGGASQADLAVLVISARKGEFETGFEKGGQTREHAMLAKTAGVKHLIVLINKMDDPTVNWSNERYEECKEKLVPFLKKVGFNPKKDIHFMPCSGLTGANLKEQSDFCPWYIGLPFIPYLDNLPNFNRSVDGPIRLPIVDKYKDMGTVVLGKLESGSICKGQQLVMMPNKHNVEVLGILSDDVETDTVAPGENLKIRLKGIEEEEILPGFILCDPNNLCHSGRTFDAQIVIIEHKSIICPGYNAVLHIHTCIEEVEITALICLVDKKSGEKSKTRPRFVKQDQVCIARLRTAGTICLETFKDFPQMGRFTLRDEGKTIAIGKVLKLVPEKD
T4 sequence (Q96SW2 whole entry): as the sequence (Q96SW2 whole entry) above
T4 sequence (Q16531 whole entry partner): as the sequence (Q16531 whole entry partner) above
T2 sequence (P48729 whole entry): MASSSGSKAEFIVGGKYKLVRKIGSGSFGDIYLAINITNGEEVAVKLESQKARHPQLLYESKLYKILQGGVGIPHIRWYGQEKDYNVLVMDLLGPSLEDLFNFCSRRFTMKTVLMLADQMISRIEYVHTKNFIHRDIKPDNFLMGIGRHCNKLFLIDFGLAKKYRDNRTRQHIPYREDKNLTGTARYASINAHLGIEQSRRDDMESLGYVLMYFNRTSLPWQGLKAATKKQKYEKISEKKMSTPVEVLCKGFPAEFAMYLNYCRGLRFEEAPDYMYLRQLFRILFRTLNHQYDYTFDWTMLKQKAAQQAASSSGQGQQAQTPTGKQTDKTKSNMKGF
T2 sequence (Q96SW2 whole entry): as the sequence (Q96SW2 whole entry) above
T2 sequence (Q16531 whole entry partner): as the sequence (Q16531 whole entry partner) above
T1 sequence (Q9UKS7 whole entry): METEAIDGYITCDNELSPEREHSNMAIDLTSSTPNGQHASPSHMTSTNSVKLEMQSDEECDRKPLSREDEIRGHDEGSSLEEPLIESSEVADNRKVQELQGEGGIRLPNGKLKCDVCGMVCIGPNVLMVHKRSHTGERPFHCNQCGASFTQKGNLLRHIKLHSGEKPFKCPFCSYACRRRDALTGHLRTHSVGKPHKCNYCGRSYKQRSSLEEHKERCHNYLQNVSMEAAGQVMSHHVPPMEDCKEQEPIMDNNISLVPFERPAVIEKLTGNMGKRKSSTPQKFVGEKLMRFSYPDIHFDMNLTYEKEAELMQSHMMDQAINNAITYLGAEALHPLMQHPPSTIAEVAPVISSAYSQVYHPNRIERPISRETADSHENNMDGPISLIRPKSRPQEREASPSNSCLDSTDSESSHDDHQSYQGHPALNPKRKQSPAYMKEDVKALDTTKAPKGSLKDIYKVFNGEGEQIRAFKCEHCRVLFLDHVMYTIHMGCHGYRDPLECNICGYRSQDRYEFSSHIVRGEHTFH
T1 sequence (Q96SW2 whole entry): as the sequence (Q96SW2 whole entry) above
T1 sequence (Q16531 whole entry partner): as the sequence (Q16531 whole entry partner) above

Row | Compound | IKZF2 substrate protein remaining % [1] | CK1α substrate protein remaining % [2] | IKZF1 substrate protein remaining % [3] | GSPT1 substrate protein remaining % [4] | IKZF3 substrate protein remaining % [5] | WEE1 substrate protein remaining % [6]
1 | O=C1CCN(N2C(=O)c3ccc(CN4CC=C(c5n[nH]c6cc(F)ccc56)CC4)cc3C2=O)C(=O)N1 [GT-07643, 2-(2,4-dioxotetrahydropyrimidin-1(2H)-yl)-5-((4-(6-fluoro-1H-indazol-3-yl)-3,6-dihydropyridin-1(2H)-yl)methyl)isoindoline-1,3-dione] | B (80%< substrate protein remaining % ≤100%) | B (80%< substrate protein remaining % ≤100%) | B (80%< substrate protein remaining % ≤100%) | A (0% ≤ substrate protein remaining % ≤80%) | B (80%< substrate protein remaining % ≤100%) | B (80%< substrate protein remaining % ≤100%)
2 | O=C1CCN(N2Cc3cc(CN4CCC(c5cccc6cnccc56)CC4)ccc3C2=O)C(=O)N1 [GT-07644, 1-(5-((4-(isoquinolin-5-yl)piperidin-1-yl)methyl)-1-oxoisoindolin-2-yl)dihydropyrimidine-2,4(1H,3H)-dione] | B (80%< substrate protein remaining % ≤100%) | B (80%< substrate protein remaining % ≤100%) | B (80%< substrate protein remaining % ≤100%) | A (0% ≤ substrate protein remaining % ≤80%) | B (80%< substrate protein remaining % ≤100%) | B (80%< substrate protein remaining % ≤100%)
3 | O=C1CCN(N2Cc3cc(CN4CCC(c5ccnc6cc(F)ccc56)CC4)ccc3C2=O)C(=O)N1 [GT-07645, 1-(5-((4-(7-fluoroquinolin-4-yl)piperidin-1-yl)methyl)-1-oxoisoindolin-2-yl)dihydropyrimidine-2,4(1H,3H)-dione] | B (80%< substrate protein remaining % ≤100%) | B (80%< substrate protein remaining % ≤100%) | A (0% ≤ substrate protein remaining % ≤80%) | A (0% ≤ substrate protein remaining % ≤80%) | B (80%< substrate protein remaining % ≤100%) | B (80%< substrate protein remaining % ≤100%)
4 | O=C1CCN(N2C(=O)c3ccc(CN4CCC(N5CCCc6cc(F)ccc65)CC4)cc3C2=O)C(=O)N1 [GT-07681, 2-(2,4-dioxotetrahydropyrimidin-1(2H)-yl)-5-((4-(6-fluoro-3,4-dihydroquinolin-1(2H)-yl)piperidin-1-yl)methyl)isoindoline-1,3-dione] | B (80%< substrate protein remaining % ≤100%) | B (80%< substrate protein remaining % ≤100%) | A (0% ≤ substrate protein remaining % ≤80%) | A (0% ≤ substrate protein remaining % ≤80%) | B (80%< substrate protein remaining % ≤100%) | B (80%< substrate protein remaining % ≤100%)
5 | O=C1CCN(N2C(=O)c3ccc(CN4CCC(N5CCOc6cc(F)ccc65)CC4)cc3C2=O)C(=O)N1 [GT-07682, 2-(2,4-dioxotetrahydropyrimidin-1(2H)-yl)-5-((4-(7-fluoro-2,3-dihydro-4H-benzo[b][1,4]oxazin-4-yl)piperidin-1-yl)methyl)isoindoline-1,3-dione] | B (80%< substrate protein remaining % ≤100%) | B (80%< substrate protein remaining % ≤100%) | B (80%< substrate protein remaining % ≤100%) | A (0% ≤ substrate protein remaining % ≤80%) | B (80%< substrate protein remaining % ≤100%) | B (80%< substrate protein remaining % ≤100%)
6 | O=C1CCN(N2C(=O)c3ccc(CN4CCC(N5C(=O)COc6cc(F)ccc65)CC4)cc3C2=O)C(=O)N1 [GT-07683, 2-(2,4-dioxotetrahydropyrimidin-1(2H)-yl)-5-((4-(7-fluoro-3-oxo-2,3-dihydro-4H-benzo[b][1,4]oxazin-4-yl)piperidin-1-yl)methyl)isoindoline-1,3-dione] | B (80%< substrate protein remaining % ≤100%) | B (80%< substrate protein remaining % ≤100%) | B (80%< substrate protein remaining % ≤100%) | A (0% ≤ substrate protein remaining % ≤80%) | B (80%< substrate protein remaining % ≤100%) | B (80%< substrate protein remaining % ≤100%)
7 | O=C1CCN(N2C(=O)c3ccc(CN4CCC(C5CCOc6cc(F)ccc65)CC4)cc3C2=O)C(=O)N1 (stereo not drawn) [GT-07684, 2-(2,4-dioxotetrahydropyrimidin-1(2H)-yl)-5-((4-(7-fluorochroman-4-yl)piperidin-1-yl)methyl)isoindoline-1,3-dione] | B (80%< substrate protein remaining % ≤100%) | B (80%< substrate protein remaining % ≤100%) | B (80%< substrate protein remaining % ≤100%) | A (0% ≤ substrate protein remaining % ≤80%) | B (80%< substrate protein remaining % ≤100%) | B (80%< substrate protein remaining % ≤100%)
8 | O=C1CCN(N2C(=O)c3ccc(CN4CCC(=C5CCOc6cc(F)ccc65)CC4)cc3C2=O)C(=O)N1 [GT-07685, 2-(2,4-dioxotetrahydropyrimidin-1(2H)-yl)-5-((4-(7-fluorochroman-4-ylidene)piperidin-1-yl)methyl)isoindoline-1,3-dione] | B (80%< substrate protein remaining % ≤100%) | B (80%< substrate protein remaining % ≤100%) | B (80%< substrate protein remaining % ≤100%) | A (0% ≤ substrate protein remaining % ≤80%) | B (80%< substrate protein remaining % ≤100%) | B (80%< substrate protein remaining % ≤100%)
9 | O=C1CCN(N2C(=O)c3ccc(CN4CCC(c5cccc6c(F)cccc56)CC4)cc3C2=O)C(=O)N1 [GT-07686, 2-(2,4-dioxotetrahydropyrimidin-1(2H)-yl)-5-((4-(5-fluoronaphthalen-1-yl)piperidin-1-yl)methyl)isoindoline-1,3-dione] | B (80%< substrate protein remaining % ≤100%) | B (80%< substrate protein remaining % ≤100%) | B (80%< substrate protein remaining % ≤100%) | A (0% ≤ substrate protein remaining % ≤80%) | B (80%< substrate protein remaining % ≤100%) | B (80%< substrate protein remaining % ≤100%)
